“And” between values parts separate entries of the source, which are not always exact repeats. Equal entries are not always repeated. Where two headings read alike, the source gives them in different places.
Experiments:
[1] = β-sheet content by ATR-FT-IR; format: physicochemical
Procedure, shortened: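 Conversion rate: fluorescamine fluorescence (ex 365/em 470 nm, 20 min RT) of 3 kDa filtrate versus unfiltered PNF, CR = 100 − 100 × filtrate/original intensity, triplicates. β-sheet content came from ATR FT-IR of lyophilized 1 mg/mL PNF powder, 64 scans.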

[2] = tested on: HIV-1 infection of TZM-bl cells; test: HIV-1 infectivity enhancement assay, β-galactosidase luminescence; format: cell-based; conditions: for Log10 Infection Rel EF-C: HIV-1 infection of TZM-bl cells; for infectivity: infectivity class (low / medium / high) of each library peptide, main list in c1-c6, same classes repeated in sub-lists of sequences containing the hydrophobicity/charge patterns P+,H0,P+,H0,P0,H0,P0, P+,H0,P0,H0,P0,H0,P0, P+,H0,P0,H0; for Log10 Inf. rel. to EF-C: log10 of HIV-1 infection of TZM-bl cells relative to EF-C, Fig S15 source data
[3] = format: physicochemical; conditions: for Tht category (> 1.5 to blank = +): category 1/0
Procedure, shortened: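 Fibrils (1 mg/mL solution) were mixed with 50 µM ThT in PBS for 15 min at RT, and fluorescence was read at λex 440/λem 488 nm against a PBS blank, as a triplicate mean ± SD. Zeta potential came from electrophoretic mobility (Smoluchowski) after 1 d aggregation at 1 mg/mL in PBS pH 7.4, diluted into 1 mM KCl.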

[4] = format: physicochemical; design: key to Fibril / Fibril Formation / TEM 2cat / Fibril: 1 = fibrils present; 0 non-fibrillar structures; conditions: for TEM 2cat: fibril category by TEM
[5] = Feb2021, Log10 of infectivity relative to EF-C
[6] = Feb2021, n-fold infectivity relative to EF-C
[7] = ThT fluorescence relative to blank (42.1851851851852 a.u.)
[8] = Feb2021, 1.3 µM value relative to virus only (0 µM)
[9] = Feb2021, n-fold enhancement relative to EF-C
[10] = Feb2021, unrounded values of the 1.3 µM column
[11] = Feb2021 run, infectivity n-fold relative to virus alone
[12] = Feb2021 run, log10 of infectivity relative to EF-C
[13] = Feb2021 run, n-fold infectivity relative to EF-C
[14] = relative to blank 42.1851851851852 a.u.

| Substance | FTIR ß-sheet content/ % ([1]; ATR-FT-IR) | Log10 of Rel to EFC (Feb2021) [2, 5] | Rel-to EFC (Feb-2021) [2, 6] | infectivity [2] | Log10 Inf. rel. to EF-C ([2]; asymmetric std dev errors) | Tht rel to blank (42.1851851851852) [3, 7] | Tht category (> 1.5 to blank = +) [3] | TEM: 1= fibrils, 0= aggregates (micelle), 0.5 = aggregates and fibrils, -1 = nothing obersved, STD prep [4] | FTIR ß-sheet content/ % [1] [%] | n-fold to virus (Feb2021) [2, 8] | Rel-to EFC (Feb-2021) [2, 9] | Absolute Infectivity / RLU /s (Feb2021) [2, 10] [RLU /s] | n-fold to virus (Feb2021) [2, 11] | Log10 of Rel to EFC (Feb2021) [2, 12] | Rel-to EFC (Feb-2021) [2, 13] | Tht rel to blank (42.1851851851852) [3, 14] | further results |
| --- | --- | --- | --- | --- | --- | --- | --- | --- | --- | --- | --- | --- | --- | --- | --- | --- | --- |
| RGDKIKIQI | – | – | – | – | – | – | – | – | – | – | – | – | – | – | – | – | b -sheet / % ([1]; Fig. S7 panel A, β-sheet content by ATR-FT-IR): 40.49%; Rel-EFC ([2]; 1.3 µM peptide, infection relative to EF-C (QCKIKQIINMWQ = 1)): 0,02; Log10 Infection Rel EFC ([2]; 1.3 µM peptide, log10 of infection relative to EF-C): -1,81; Log Infectivity ([2]; Fig. S7 panel A (plotted against β-sheet content), Log10 infection relative to EF-C, TZM-bl cells, asymmetric std dev errors): -1.805; Log10 Infection Rel EF-C ([2]; Log10 of infection rate relative to EF-C, Figure 3A source data): -1.81; Log10 Infection Rel EF-C ([2]; infection rate relative to EF-C, log10, data of Figure 2D): -1.805; Log10 Infection Rel EF-C ([2]; infection rate relative to EF-C, log10, source data of Figure 2C): -1.805; Tht category (> 2 to blank = +) ([3]; Fig S10 panel D): 1 (ThT. Cat is 1, if Rel. ThT >2); Tht category (> 2 to blank = +) ([3]; FigS12 panel A): 1 (ThT. Cat is 1, if Rel. ThT >2); ThT Cat, ([3]; FigS12 panel B): 1 (ThT. Cat is 1, if Rel. ThT >2); ThT Cat, ([3]; ThT category, 1 if Rel. ThT >2): 1 (ThT. Cat is 1, if Rel. ThT >2); ThT Cat. ([3]; ThT fluorescence category, 1 if Rel. ThT >2): 1 (ThT. Cat is 1, if Rel. ThT >2); ThT Cat. / ThT-Fluorescence (categorical) ([3]; ThT-active if fluorescence at least twice the control): 1 (ThT. Cat is 1, if Rel. ThT >2); TEM 2cat ([4]; Fig S10 panel D): 1; TEM 2cat ([4]; FigS12 panel A): 1; Fibril ([4]; FigS12 panel B, TEM): 1; Fibril / Fibril Formation ([4]; TEM, 1 mg/mL, uranyl acetate stain, qualitative): 1; Fibril ([4]; TEM, 1 = fibrils present, 0 = non-fibrillar): 1; Fibril ([4]; TEM, 1 = fibrils present, 0 = non-fibrillar structures): 1 |
| HHHHKIKIKIKIYYYY [TM6] | 0% | -0.1685 | 0.6784 | medium | -0.1685 | 9.935 | 1 (ThT. Cat is 1, if Rel. ThT >2) | 0.5 | – | – | – | – | – | – | – | – | Absolute Infectivity / RLU /s (Feb2021) ([2]; Feb2021, figures match the 1.3 µM column): 20713.33333 RLU /s; Rel-to EFC (Feb-2021) ([2]; Feb2021, infectivity enhancement relative to EF-C): 0.6784; n-fold to virus (Feb2021) ([2]; Feb2021, infectivity relative to virus only): 28.5; Rel-to EFC ([2]; Fig S8 panels B, D, infectivity enhancement relative to EF-C): 0.6784; n-fold to virus ([2]; Fig S8 panels B, D, infectivity n-fold relative to virus alone): 28.5; Tht rel to blank (42.1851851851852) ([3]; ThT fluorescence relative to blank, blank = 42.1851851851852): 9.935 |
| QCKFKFQFNMWQ [CK7] | 47% and 47.05% | -0.2086 | 0.6186 | medium | -0.2086 | 1.854 | 0 (ThT-inactive (N-Fold <2)) | 1 | 47.05 | 25.99 | 0.6186 | 19753.33333 | 25.99 | -0.2086 | 0.6186 | 1.854 | – |
| KIKIQINM [JGB2] | 41% | -0.4404 | 0.3627 | medium | -0.4404 | 1.587 | 0 (ThT-inactive (N-Fold <2)) | 1 | 41 | 15.24 | 0.3627 | 2947 | 15.24 | -0.4404 | 0.3627 | 1.587 | – |
| MKFKFQF [DF5 / CK16] | 21.97% | – | 0.06366 | low | -1.196 | – | 0 (ThT-inactive (N-Fold <2)) | 1 | – | 2.675 | – | 1427 | – | – | – | 0.9846 | Log10 of Rel to EFC (Feb2021) ([2]; Feb2021, log10 of infectivity relative to EF-C): -1.196 |

From paper PMC10447463, “Data-mining unveils structure–property–activity correlation of viral infectivity enhancing self-assembling peptides” (Nature Communications, 2023)
